Measured values published in patent US11730717B1, “Melanin-inspired antimicrobial” (The Board of Regents for the Oklahoma Agricultural and …, priority 2020, dated 2023).
Where “and” joins values, the source holds several entries; their conditions need not be identical. Equal values may be shown once.

Assays:
Type in all cases: cell-based
HeLa cells = test: Cytotoxicity, LDH leakage assay
Protocol: HeLa cells were cultured in 96-well plates at 37° C. and 5% CO2 in Roswell Park Memorial Institute (RMPI) 1640 medium with 5% Fetal Bovine Serum (FBS). Once HeLa cells reached 95% confluency, the media was replaced with media containing various concentrations of EIPE-1, DBI or DMSO for 24 hours. Cell cytotoxicity was measured using the lactate dehydrogenase (LDH) leakage assay. Results were compared to maximum values of lysed cells in control wells and were graphed as percent relative cytotoxicity using Prism 5.0.
Host cell cytotoxicity against HeLa cells was examined for both DBI and EIPE-1 (FIG. 2B). LDH release was examined after 24-hour exposure to varying concentrations of DBI, DMSO and EIPE-1. […] Thus, EIPE-1 is relatively safe to use with respect to eukaryotic cells.

[1] = test system: Staphylococcus aureus ATCC 25923; test: Disc agar diffusion assay
Protocol: As a further test of an embodiment, the antibacterial properties of EIPE-1 were tested across a large panel of organisms. EIPE-1 was dissolved in DMSO, impregnated onto sterile filter paper disks, and DMSO served as the untreated control according to the following procedure: • 1. Prepare a 2.5 μg/μL stock solution of EIPE-1 by micro pipetting 200 μL of DMSO into 2.0 mL Eppendorf Tube containing 0.5 mg of EIPE-1. Dissolve with vortex agitation and store at 4° C. • 2. Use forceps to pick up sterile 6.0 mm blank paper disks. Make sure to touch only one side of disc as lightly as possible. […] Lean the impregnated disc up against the side of a small sterile glass petri dish. Follow same procedure for DMSO control. Allow disks several hours to dry under flowing sterile air. • 3. Inoculate starter cultures using cells from working culture cultivated on Mueller-Hinton Agar (MHA; Difco Laboratories). Starters consist of ˜20 mL of Mueller-Hinton Broth (MHB; Difco Laboratories) in 125-mL culture flasks. Incubate starter cultures in an Excella E24 Benchtop Incubator Shaker (New Brunswick Scientific Co., Inc., Edison, N.J., USA) at 37° C. and 180 rpm for 15-18 hours. • 4. Pour at least 5.0 mL of NMB into 18-mL Kimax tubes. Use a Pasteur pipette to deliver enough of the starter culture cell suspension to reach an optical density (OD620) of 0.025 (Spectronic™ 20 optical spectrophotometer; Thermo Electron Corp., Madison, Wis., USA). Ensure that both transmittance and absorbance are set to 0.0 using a blank NMB sample. Incubate in rotary shaking incubator at 37° C. and 180 rpm until optical density reaches 0.1. • 5. Deliver 100 μL of test culture to the middle of a small 100 mm×15 mm Petri dish containing ˜⅛ in thickness of MHA. • 6. Saturate a sterile cotton swab with MHB by dipping the cotton swab into KIMAX® tube with MHB and then touch the swab to the north, south, east, and west side of the KIMAX® tube to remove excess broth. • 7. Streak the inoculum as follows: • a. Start in the center and make four straight lines to the 12, 3, 6, and 9 o'clock position on the petri dish. • b. Start at the 12 o'clock position and streak side to side all the way down the plate to the 6 o'clock position. […] Rotate the petri dish 90° and complete the same side to side streak all the way down the petri dish. • d. Complete step c. twice more. • e. Rotate petri dish 45° and complete the side-to-side streak. • f. Rotate petri dish 90° and complete the side-to-side streak. • 8. Use sterile forceps to transfer the DMSO control paper disc onto the agar surface and pat the paper disc down to ensure flush contact. Use the same technique to deliver EIPE-1 paper disc. • 9. Place petri dish at 4° C. for 1.0 hour to allow EIPE-1 diffusion in the absence of growth. • 10. Incubate petri dish at 37° C. for 18 hours. • 11. Observe for zones of growth inhibition surrounding disks. Measure diameter with electronic caliper and subtract 6.0-mm disc diameter. Results • a) Each organism was initially tested once to serve as a screen.

[2] = test system: Candida isolates from the airways of CF patients; test: MIC against Candida clinical isolates; settings: range over multiple Candida isolates from CF patients (FIG. 8)
Protocol: EIPE-1 was evaluated against multiple Candida isolates from the airways of CF patients.

[3] = test system: Enterococcus faecalis (E. faecalis); test: MIC by broth microdilution
Protocol: (§1) The methicillin resistant Staphylococcus aureus (MRSA) and Pseudomonas aeruginosa (PA) strains used in this study are clinical isolates obtained from an adult CF patient at the Cystic Fibrosis Clinic at the OU Children's Hospital (Oklahoma City, Okla.). Escherichia coli (E. coli) and Enterococcus faecalis (E. faecalis) were obtained from American Type Culture Collection (ATCC). The strains were grown overnight with shaking at 37° C. (220 RPM) in 15 mL of Luria-Bertani (LB) broth. The overnight culture was sub-cultured the next day before use for the MIC experiments. All sub-cultures consisted of 1 mL of the overnight culture, mixed with 10 mL of Mueller Hinton broth. The working stock of the EIPE-1 and DBI was prepared by dissolving 1 mg of each in 1 mL of DMSO.
(§2) The minimum inhibitory concentrations (MICs) were determined by the broth microdilution method, following the guidelines of the Clinical and Laboratory Standards Institute (CLSI). Two-fold serial dilutions of EIPE-1, DBI, and Arm (starting with 1 mg/mL) were prepared in a 100 μL volume in 96-well microtiter plates. The dilution series included DMSO as a negative control. The bacterial culture […] was normalized to an OD600 of 0.2 and was then added to each well. Plates were incubated with shaking at 220 RPM at 37° C., and the MIC was determined based on the lowest concentration at which no visible growth of the bacterial isolate was observed.
(§3) In order to determine the MIC of EIPE-1 on MRSA, a culture of MRSA was grown overnight in Mueller Hinton broth (MHB) at 37° C., sub-cultured by a 1/100 dilution into MHB and dispensed into a 96 well culture block (900 μL of diluted culture in each well). To each well either DMSO or a serial dilution of EIPE-1 was added, then the culture was grown for 18 h at 37° C. The next day each well was tested for either growth or inhibition of growth by measuring of the OD^600 of the resulting culture. […] For comparison, the MIC of EIPE-1 was also determined against E. faecalis (8 μg/mL, 9 μM), confirming activity against Gram-positive bacteria.

[4] = test system: methicillin resistant Staphylococcus aureus (MRSA) clinical isolate; test: MIC by broth microdilution; settings: Staphylococcus aureus, MRSA, 18 h, clinical isolate of MRSA from an adult CF patient; broth culture, 18 h at 37° C.; read-out: minimum inhibitory concentration (MIC)
Protocol: as §1, §2, §3

COC(=O)c1cc2c(C#Cc3ccc(OCCC[N+](C)(C)C)cc3)c(OC)c(OC)c(C#Cc3ccc(OCCC[N+](C)(C)C)cc3)c2n1C [EIPE-1, 3,3′-((((5,6-dimethoxy-2-(methoxycarbonyl)-1-methyl-1H-indole-4,7-diyl)bis(ethyne-2,1-diyl))bis(4,1-phenylene))bis(oxy))bis(N,N,N-trimethylpropan-1-aminium) iodide]
concentration at which cell cytotoxicity was detected (HeLa cells): 62.5 μg/mL and 66.8 μM | maximal cytotoxicity (LDH release) (HeLa cells; 24-hour exposure, concentrations above 62.5 μg/mL (66.8 μM)): 50% | cytotoxic concentration relative to the MIC against S. aureus (HeLa cells; prolonged exposure (24 h)): 4-5 fold | susceptibility group in disc diffusion screen ([1]; Group 3: Gram-positive organisms): susceptible | Inhibition Zone Diameter (mm) ± SD ([1]; S. aureus ATCC 25923, 25 μg per disk, zone minus disk diameter (6.0mm)): 1.6 ± 0.1 mm | Inhibition Zone Diameter (mm) ± SD ([1]; S. aureus ATCC 25923, 50 μg per disk, zone minus disk diameter (6.0mm)): 3.1 ± 0.2 mm | zone of inhibition at 25 µg/disc ([1]; Staphylococcus aureus, ATCC25923, S. aureus ATCC 25923, 25 μg per disk, zone minus disk diameter (6.0mm), read-out: Inhibition Zone Diameter (mm) ± SD): 1.6 mm | zone of inhibition at 50 µg/disc ([1]; Staphylococcus aureus, ATCC25923, S. aureus ATCC 25923, 50 μg per disk, zone minus disk diameter (6.0mm), read-out: Inhibition Zone Diameter (mm) ± SD): 3.1 mm | zone of inhibition at 250 µg/disc ([1]; Staphylococcus aureus, ATCC25923, S. aureus ATCC 25923, 250 μg per disk, zone minus disk diameter (6.0mm), read-out: Inhibition Zone Diameter (mm) ± SD): 2.3 ± 0.2 mm | MIC [2]: 4 to 11 µg/mL | MIC [3]: 8 µg/mL and 9 µM | MIC [4]: 16 µg/mL and 17.1 µM
